# In ChEMBL document CHEMBL1201862, “PubChem BioAssay data set” (2004):
# Calls of active or inactive are those of the source.
# Tests used:
# Trypsin = Trypsin (Sus scrofa, UniProt P00761); assay: trypsin protease activity blockade – biochemical, quenched peptide fluorescence, cherry-pick, selectivity assay for Rce1 protease inhibitor project, dose response (AID 488789)
# CAAX prenyl protease 2 [1] = molecular target: T1, CAAX prenyl protease 2 (Homo sapiens, UniProt Q9Y256); assay: inhibition of Ras-converting CAAX protease Rce1 – biochemical, yeast membranes, quenched-peptide fluorescence, cherry-pick, dose response (AID 588849)
# T1 sequence (Q9Y256 whole entry): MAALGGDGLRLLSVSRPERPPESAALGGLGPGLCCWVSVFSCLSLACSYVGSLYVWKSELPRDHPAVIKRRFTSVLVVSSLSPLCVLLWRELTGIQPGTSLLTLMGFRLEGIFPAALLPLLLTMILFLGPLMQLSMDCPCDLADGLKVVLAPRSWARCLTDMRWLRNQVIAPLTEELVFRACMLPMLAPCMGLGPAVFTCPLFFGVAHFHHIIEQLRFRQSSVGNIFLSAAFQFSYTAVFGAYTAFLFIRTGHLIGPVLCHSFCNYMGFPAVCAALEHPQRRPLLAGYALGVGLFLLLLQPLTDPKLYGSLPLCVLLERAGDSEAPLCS
# CAAX prenyl protease 2 [2] = molecular target: CAAX prenyl protease 2 (Saccharomyces cerevisiae S288c, UniProt Q03530); format: biochemical
# HEK293 [3] = assay: cells; format: functional, cell-based; conditions: Homo sapiens
# HEK293 [4] = assay: inhibition of NOD1-driven NF-kB reporter – cell-based, luminescence, uHTS, primary screen (AID 1578); format: functional; conditions: Homo sapiens
# Streptokinase A = molecular target: T2, Streptokinase A (Streptococcus pyogenes serotype M1, UniProt P10520); assay: viability-normalized secreted streptokinase activity reduction – plasminogen activation absorbance, OD405, dose response (AID 1914); format: functional, Streptococcus pyogenes M1 GAS;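 note: secreted streptokinase activity via plasminogen activation per viability signal from cell pellet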
# T2 sequence (P10520 whole entry): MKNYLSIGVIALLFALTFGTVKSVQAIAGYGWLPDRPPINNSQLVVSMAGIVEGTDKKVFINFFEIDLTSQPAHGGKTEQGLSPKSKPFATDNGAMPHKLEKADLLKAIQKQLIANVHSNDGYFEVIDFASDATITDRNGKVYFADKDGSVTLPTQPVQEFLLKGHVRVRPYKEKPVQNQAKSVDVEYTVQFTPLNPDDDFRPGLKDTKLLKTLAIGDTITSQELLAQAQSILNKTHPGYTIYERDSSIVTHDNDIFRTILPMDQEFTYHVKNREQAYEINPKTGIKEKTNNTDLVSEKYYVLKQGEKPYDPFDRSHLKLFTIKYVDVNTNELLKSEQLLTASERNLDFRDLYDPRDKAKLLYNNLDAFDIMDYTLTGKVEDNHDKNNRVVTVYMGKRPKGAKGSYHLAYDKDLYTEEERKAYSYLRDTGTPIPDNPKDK
# HEK293 [5] = assay: cells; format: functional, cell-based; conditions: Homo sapiens; remark: listed apart in the source
# Streptococcus = assay: GAS UMAA2166 growth inhibition – luminescence, BacTiterGlo, counter-screen for streptokinase expression inhibitor project, dose response (AID 1915); format: functional, organism-based;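 note: potency for reduction of bacterial viability or growth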
# HEK293 [6] = assay: cells; format: functional, cell-based; conditions: Homo sapiens; remark: listed apart in the source
# [7] = viability of uninfected HEp-2 cells – cell-based, HTS, cytotoxicity control for RSV inhibitor project, dose response (AID 2410); format: functional; conditions: human respiratory syncytial virus
# HEK293 [8] = assay: NOD2 signaling inhibitors in MDP-stimulated cells, cell-based, uHTS, luminescence (AID 2001); format: functional; conditions: Homo sapiens
# [9] = molecular target: T3, Short transient receptor potential channel 4 (Mus musculus, UniProt Q9QUQ5); assay: calcium entry via TRPC4 opening agents – cell-based, HEK293 TRPC4/mu-opioid, Fluo-4 calcium, dose response (AID 434937); format: functional
# T3 sequence (Q9QUQ5 whole entry): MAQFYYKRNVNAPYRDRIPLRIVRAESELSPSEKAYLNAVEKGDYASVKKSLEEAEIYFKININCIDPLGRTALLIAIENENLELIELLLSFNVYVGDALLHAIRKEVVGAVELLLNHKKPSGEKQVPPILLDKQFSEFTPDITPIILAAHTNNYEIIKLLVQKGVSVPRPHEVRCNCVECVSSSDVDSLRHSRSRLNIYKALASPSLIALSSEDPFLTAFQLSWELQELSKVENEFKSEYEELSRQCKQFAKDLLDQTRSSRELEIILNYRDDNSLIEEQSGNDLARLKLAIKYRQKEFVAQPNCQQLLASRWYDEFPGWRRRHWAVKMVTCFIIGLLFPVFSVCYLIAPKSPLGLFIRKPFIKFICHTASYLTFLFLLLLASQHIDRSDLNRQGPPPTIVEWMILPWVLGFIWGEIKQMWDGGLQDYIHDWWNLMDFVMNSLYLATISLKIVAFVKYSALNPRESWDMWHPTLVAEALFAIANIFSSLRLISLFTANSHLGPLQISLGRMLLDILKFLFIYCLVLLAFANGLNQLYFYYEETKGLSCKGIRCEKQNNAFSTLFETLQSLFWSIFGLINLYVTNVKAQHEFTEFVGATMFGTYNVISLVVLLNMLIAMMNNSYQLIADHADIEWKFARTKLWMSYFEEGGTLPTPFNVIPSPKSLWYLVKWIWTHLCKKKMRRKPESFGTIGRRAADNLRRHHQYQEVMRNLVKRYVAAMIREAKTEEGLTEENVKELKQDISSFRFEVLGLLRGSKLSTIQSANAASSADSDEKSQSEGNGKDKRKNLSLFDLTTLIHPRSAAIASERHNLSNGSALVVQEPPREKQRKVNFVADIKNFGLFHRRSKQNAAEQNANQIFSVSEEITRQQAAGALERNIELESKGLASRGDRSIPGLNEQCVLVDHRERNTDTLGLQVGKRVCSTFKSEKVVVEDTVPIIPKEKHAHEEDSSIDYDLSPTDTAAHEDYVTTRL
# [10] = molecular target: Nucleotide-binding oligomerization domain-containing protein 2 (Homo sapiens, UniProt Q9HC29); assay: inhibition of NOD2-driven NF-kB reporter – cell-based, luminescence, uHTS, HEK293 (AID 1566); format: functional
# [11] = test system: Streptococcus sp. 'group A'; assay: Streptococcus pyogenes SK(-)GAS viability under kanamycin – luminescence, BacTiterGlo, confirmation, counter-screen for streptokinase expression inhibitor project, dose response (AID 1900); format: functional, organism-based; conditions: read-out: EC50
# [12] = molecular target: DNA damage-inducible transcript 3 protein (Mus musculus, UniProt P35639); format: functional, Cricetulus griseus
# X-box-binding protein 1 = X-box-binding protein 1 (Homo sapiens, UniProt P17861); format: functional, Cricetulus griseus;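 note: confirmatory dose-response counter-screen serving a CHOP assay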
# [13] = molecular target: Alkaline phosphatase, placental type (Homo sapiens, UniProt P05187); assay: human placental alkaline phosphatase inhibition – biochemical, luminescence, confirmation (AID 1512); format: functional
# [14] = molecular target: Glyceraldehyde-3-phosphate dehydrogenase (Homo sapiens, UniProt P04406)
# [15] = molecular target: T4, Alkaline phosphatase, tissue-nonspecific isozyme (Homo sapiens, UniProt P05186); assay: potency against alkaline phosphatase TNAP – biochemical, luminescent, dose response, SAR follow-up (AID 1056)
# T4 sequence (P05186 whole entry): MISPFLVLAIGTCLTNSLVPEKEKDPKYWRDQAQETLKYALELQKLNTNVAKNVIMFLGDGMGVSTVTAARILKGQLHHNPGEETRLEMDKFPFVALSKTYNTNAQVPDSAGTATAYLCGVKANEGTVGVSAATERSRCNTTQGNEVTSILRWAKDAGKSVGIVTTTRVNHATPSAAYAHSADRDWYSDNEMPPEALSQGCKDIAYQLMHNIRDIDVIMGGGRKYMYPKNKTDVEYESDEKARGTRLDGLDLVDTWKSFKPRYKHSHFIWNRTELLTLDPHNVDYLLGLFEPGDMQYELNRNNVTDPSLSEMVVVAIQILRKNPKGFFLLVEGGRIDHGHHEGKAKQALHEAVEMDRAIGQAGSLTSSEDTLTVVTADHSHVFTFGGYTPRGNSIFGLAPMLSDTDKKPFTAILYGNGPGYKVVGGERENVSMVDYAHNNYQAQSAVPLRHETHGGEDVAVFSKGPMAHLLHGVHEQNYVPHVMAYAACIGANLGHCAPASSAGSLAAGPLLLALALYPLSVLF
# cells = format: functional
# [16] = molecular target: T5, Replicative DNA helicase DnaB (Mycobacterium tuberculosis, UniProt P9WMR3); assay: DnaB intein splicing inhibitors, dose response, biochemical, cell-free fluorescence (AID 449749); format: functional
# T5 sequence (P9WMR3 whole entry): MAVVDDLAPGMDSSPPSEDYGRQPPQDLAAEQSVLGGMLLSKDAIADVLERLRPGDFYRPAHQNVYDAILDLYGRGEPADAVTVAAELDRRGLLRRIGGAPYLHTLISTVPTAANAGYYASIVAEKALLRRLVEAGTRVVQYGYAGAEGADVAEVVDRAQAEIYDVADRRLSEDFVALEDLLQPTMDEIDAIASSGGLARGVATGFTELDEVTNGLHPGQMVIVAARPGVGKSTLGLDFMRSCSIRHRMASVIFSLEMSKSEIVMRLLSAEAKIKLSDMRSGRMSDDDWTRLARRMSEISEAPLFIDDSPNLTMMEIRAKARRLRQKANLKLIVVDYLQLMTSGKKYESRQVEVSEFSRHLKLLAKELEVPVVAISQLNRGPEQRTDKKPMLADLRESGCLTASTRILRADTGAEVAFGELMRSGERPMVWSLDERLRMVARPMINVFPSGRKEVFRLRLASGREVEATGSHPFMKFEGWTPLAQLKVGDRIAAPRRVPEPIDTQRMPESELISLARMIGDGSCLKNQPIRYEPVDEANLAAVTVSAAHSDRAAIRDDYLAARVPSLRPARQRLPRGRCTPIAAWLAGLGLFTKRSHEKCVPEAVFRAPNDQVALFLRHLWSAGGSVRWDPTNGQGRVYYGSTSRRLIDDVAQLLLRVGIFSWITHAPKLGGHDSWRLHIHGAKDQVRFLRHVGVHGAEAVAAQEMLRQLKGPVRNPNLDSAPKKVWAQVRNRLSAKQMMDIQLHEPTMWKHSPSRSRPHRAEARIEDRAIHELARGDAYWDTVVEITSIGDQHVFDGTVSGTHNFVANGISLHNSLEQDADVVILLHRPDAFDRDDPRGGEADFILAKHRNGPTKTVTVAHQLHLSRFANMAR
# Protein RecA = molecular target: T6, Protein RecA (Mycobacterium tuberculosis, UniProt P9WHJ3); assay: Fluorescence Cell-Free Homogeneous Dose Retest to Identify Inhibitors of RecA-Intein Splicing Activity. [Related pubchem assays (depositor defined):AID2097, AID2223, AID489010, AID492950]; format: functional
# T6 sequence (P9WHJ3 whole entry): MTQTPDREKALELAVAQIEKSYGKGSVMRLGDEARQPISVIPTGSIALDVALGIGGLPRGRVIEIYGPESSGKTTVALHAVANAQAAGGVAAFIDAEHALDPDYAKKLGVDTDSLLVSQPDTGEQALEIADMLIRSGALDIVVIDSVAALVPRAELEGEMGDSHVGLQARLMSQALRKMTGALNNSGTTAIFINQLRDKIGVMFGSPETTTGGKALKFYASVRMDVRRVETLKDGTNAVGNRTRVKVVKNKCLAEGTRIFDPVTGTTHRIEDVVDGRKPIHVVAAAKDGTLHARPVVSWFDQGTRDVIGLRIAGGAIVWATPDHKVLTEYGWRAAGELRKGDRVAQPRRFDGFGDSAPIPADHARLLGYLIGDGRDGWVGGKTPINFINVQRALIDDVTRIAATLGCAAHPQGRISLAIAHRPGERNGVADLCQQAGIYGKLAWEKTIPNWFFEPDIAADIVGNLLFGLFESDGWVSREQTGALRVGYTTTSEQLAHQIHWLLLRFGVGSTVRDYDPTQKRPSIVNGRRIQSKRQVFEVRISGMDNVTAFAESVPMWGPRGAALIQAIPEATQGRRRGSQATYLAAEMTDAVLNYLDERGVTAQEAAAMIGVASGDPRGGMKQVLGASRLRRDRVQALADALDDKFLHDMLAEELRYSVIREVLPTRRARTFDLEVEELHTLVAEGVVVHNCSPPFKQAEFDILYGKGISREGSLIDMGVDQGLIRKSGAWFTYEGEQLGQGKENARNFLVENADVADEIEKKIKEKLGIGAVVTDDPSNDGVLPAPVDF
# T-cell = assay: loss of vesicle association with mouse CD8+ T cells – mouse 2C CD8+ T cells, flow cytometry, dose response (AID 485284); format: functional
# CAAX prenyl protease 2 (Saccharomyces cerevisiae S288c, UniProt Q03530), sequence (Q03530 whole entry): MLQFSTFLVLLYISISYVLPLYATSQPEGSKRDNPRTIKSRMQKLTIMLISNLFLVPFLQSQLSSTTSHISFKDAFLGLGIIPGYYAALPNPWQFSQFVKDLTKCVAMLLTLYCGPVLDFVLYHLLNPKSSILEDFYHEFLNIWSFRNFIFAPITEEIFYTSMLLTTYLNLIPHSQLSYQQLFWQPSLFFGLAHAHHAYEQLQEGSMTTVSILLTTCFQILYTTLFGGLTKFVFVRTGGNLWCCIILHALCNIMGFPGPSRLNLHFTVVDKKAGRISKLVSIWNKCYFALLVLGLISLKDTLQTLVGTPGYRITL
# Glyceraldehyde-3-phosphate dehydrogenase, sequence (P04406 whole entry): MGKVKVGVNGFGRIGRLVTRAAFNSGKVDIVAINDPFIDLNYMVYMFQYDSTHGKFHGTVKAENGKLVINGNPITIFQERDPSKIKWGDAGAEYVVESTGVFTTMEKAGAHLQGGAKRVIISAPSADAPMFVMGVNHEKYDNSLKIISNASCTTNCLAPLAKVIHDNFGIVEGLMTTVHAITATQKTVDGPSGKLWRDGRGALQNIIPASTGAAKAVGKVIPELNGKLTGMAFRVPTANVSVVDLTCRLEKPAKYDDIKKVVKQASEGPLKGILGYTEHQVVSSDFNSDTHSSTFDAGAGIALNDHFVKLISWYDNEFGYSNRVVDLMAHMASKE
# Nucleotide-binding oligomerization domain-containing protein 2, sequence (Q9HC29 whole entry, the tested form may be a part): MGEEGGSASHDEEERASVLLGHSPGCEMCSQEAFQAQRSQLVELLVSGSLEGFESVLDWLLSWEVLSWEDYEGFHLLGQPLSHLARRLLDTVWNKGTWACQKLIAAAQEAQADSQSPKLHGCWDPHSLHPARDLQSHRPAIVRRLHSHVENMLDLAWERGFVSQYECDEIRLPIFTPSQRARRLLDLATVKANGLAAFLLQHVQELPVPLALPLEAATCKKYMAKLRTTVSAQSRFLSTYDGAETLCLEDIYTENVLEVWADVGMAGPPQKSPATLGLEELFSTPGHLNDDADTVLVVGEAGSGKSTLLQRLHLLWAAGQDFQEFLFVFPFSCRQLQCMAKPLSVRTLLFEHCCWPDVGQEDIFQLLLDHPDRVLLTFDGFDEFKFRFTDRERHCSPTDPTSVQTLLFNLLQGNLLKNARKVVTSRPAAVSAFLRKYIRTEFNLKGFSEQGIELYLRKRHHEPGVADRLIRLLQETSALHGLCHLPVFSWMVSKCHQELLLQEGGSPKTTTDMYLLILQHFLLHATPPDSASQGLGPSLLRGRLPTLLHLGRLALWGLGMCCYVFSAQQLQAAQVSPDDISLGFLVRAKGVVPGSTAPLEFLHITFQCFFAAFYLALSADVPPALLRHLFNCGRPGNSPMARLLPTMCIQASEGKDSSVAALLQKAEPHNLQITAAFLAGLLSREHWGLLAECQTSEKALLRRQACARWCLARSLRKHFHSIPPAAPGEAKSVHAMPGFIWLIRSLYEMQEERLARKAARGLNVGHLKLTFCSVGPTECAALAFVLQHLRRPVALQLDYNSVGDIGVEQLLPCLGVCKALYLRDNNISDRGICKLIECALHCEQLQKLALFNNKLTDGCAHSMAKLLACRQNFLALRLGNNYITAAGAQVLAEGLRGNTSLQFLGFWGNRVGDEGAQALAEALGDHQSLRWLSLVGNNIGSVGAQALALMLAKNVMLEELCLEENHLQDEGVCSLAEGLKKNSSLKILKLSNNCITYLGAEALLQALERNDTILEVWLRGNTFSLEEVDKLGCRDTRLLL
# Alkaline phosphatase, placental type, sequence (P05187 whole entry): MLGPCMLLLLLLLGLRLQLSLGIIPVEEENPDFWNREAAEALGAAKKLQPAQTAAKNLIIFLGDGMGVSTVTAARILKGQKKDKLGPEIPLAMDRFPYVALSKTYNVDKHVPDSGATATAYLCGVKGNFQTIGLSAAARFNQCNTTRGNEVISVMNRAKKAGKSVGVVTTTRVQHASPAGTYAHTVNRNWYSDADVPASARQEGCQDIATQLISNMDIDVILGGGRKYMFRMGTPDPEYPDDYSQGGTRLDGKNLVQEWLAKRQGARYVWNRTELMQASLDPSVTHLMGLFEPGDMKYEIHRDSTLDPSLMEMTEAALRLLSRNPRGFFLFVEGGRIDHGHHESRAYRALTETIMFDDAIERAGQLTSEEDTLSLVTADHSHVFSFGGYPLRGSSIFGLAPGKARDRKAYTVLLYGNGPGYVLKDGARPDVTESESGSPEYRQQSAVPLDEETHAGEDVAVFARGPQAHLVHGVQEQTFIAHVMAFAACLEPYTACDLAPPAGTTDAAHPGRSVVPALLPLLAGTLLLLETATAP
# X-box-binding protein 1, sequence (P17861 whole entry): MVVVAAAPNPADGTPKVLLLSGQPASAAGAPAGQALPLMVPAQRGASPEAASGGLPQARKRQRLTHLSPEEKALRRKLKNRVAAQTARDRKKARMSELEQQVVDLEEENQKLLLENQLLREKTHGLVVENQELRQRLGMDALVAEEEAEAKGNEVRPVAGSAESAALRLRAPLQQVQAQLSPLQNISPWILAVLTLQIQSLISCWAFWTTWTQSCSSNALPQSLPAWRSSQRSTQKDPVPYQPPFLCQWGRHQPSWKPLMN
# DNA damage-inducible transcript 3 protein, sequence (P35639 whole entry): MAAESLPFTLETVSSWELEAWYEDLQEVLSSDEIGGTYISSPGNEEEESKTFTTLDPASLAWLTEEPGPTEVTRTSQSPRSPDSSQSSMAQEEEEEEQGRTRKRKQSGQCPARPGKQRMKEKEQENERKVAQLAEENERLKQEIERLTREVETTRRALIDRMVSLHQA
# Trypsin, sequence (P00761 whole entry): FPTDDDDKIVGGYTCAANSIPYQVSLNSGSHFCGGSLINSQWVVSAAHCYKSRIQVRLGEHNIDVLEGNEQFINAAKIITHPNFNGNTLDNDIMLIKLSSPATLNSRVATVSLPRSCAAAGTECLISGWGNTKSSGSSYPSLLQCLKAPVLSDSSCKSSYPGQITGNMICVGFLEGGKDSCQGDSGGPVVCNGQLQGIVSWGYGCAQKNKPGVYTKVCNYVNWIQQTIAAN
structure (smiles),measurement,setting,value
CCn1c(=O)c(-c2ccccc2)c(O)c2ccccc21,AC50,Trypsin,7.88 µM (active)
same,AC50,CAAX prenyl protease 2 [1],13.9 µM (active)
same,AC50,CAAX prenyl protease 2 [2],11.2 µM (active)
Cc1ccc(-c2nc3ccc(C)cn3c2CC(=O)N(C)C)cc1,AC50,CAAX prenyl protease 2 [2],16.8 µM (active)
Cc1csc2c(N3CCN(C(=O)Nc4ccc(Cl)c(Cl)c4)CC3)ncnc12,IC50,HEK293 [3],8.45 µM (active)
same,EC50,HEK293 [4],4.76 µM (active)
same,EC50,Streptokinase A,14.8 µM (active)
same,IC50,HEK293 [5],4.78 µM (active)
same,EC50,Streptococcus,57.1 µM (active)
same,IC50,HEK293 [6],> 20 µM (inactive)
same,CC50,[7],43.7 µM (active)
same,IC50,HEK293 [8],3.23 µM (active)
same,EC50,[9],1.88 µM (active)
same,EC50,[10],5 µM (active)
same,EC50,[11],3.4 µM (active)
CC1=C(C(=O)Nc2ccc(C)cc2C)C(c2cccc(Cl)c2)n2nc(C(=O)OC(C)C)nc2N1 (centres undefined),Absolute IC50 (CHOP),[12],10 µM
same,Absolute IC50 (XBP1),X-box-binding protein 1,10 µM
CCCc1n[nH]c2c1C(=O)CC(C)(C)C2,IC50,[13],> 100 µM (inactive)
same,IC50,[14],> 100 µM (not active)
same,IC50,[15],14.4 µM (active)
COc1ccc(NC(=O)Nc2ccc(O)c3ccccc23)cc1,IC50,cells,> 50 µM (active)
same,AC50,[16],18 µM (active)
same,EC50,Protein RecA,0.722 µM (active)
same,EC50,T-cell,12.5 µM (active)
